For experiment [1], the target named is T1, mouse ENT-1 transporter (Mus musculus, UniProt Q9JIM1).
T1 construct: expressed in transfected cells
T1 sequence (Q9JIM1 1-460): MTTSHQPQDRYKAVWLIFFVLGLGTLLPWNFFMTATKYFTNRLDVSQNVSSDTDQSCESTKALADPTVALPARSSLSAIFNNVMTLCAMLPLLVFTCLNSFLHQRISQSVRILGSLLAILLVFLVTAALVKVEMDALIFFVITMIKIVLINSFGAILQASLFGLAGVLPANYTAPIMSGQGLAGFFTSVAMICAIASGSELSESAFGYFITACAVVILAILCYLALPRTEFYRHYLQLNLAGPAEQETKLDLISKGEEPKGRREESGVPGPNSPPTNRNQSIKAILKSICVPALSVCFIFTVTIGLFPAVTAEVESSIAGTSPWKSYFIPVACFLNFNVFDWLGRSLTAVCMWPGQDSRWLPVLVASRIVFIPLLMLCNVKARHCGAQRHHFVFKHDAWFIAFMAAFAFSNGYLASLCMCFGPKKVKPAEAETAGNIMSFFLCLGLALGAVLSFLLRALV
Briefly: Adenosine transport activity (ENT1, [3H]-adenosine uptake). The format is cell-based. Conditions: stable cells expressing mouse ENT-1; [2,8-3H]-adenosine 6 nM, 20 min. How it is done: To measure adenosine transport activity of ENT-1 mammalian cells, stable cells expressing the mouse ENT-1 transporter were plated on day 1 in 96-well culture plates at the density of 60,000 cells/well, in complete DMEM/F12 medium supplemented with glutamax, 10% FBS and 10 μg/ml puromycin. On day 2, the medium was aspirated and the cells were washed twice with uptake buffer (10 mM Hepes-Tris, pH 7.4 containing 150 mM NaCl, 1 mM CaCl2, 2.5 mM KCl, 2.5 mM MgSO4, 10 mM D-glucose) (UB). For inhibition experiments, cells were then incubated at RT with various concentrations of compounds with 1% DMSO final. Non-specific uptake was defined in the presence of 10 μM S-(4-Nitrobenzyl)-6-thioinosine (NBTI, Sigma Cat #N2255).
A solution containing [2,8-^3H]-adenosine 6 nM (40 Ci/mmol, American Radiolabeled chemicals Inc, Cat #ART 0287A) was then immediately added to the wells. The plates were then incubated for 20 min with gentle shaking and the reaction was stopped by aspiration of the mixture and washing (three times) with ice-cold UB. The cells were lysed by the addition of scintillation liquid, shaken 3 hours and the radioactivity in the cells was estimated using a microplates scintillation counter (TopCount NXT, Packard).

Experiment [2] relates to L-687,414-induced hyperlocomotion. Briefly: Reduction of L-687,414-induced hyperlocomotion. The experiment is classed as in vivo, mouse. Conditions: mice, dose 30 mg/kg ip, 15 min before s.c. 50 mg/kg L-687,414. From the text: The authors described that hyperlocomotion induced by L-687,414 was inhibited by a series of known antipsychotic drugs. […] These findings predict antipsychotic activity for the present compounds, making them useful for the treatment of positive (psychosis) and negative symptoms of schizophrenia, substance abuse, alcohol and drug addiction, obsessive-compulsive disorders, cognitive impairment, bipolar disorders, mood disorders, major depression, resistant depression, anxiety disorders, Alzheimer's disease, autism, Parkinson's disease, chronic pain, borderline personality disorder, sleep disturbances, chronic fatigue syndrome, stiffness, antiinflammatory effects in arthritis and balance problems, epilepsy and neurodevelopmental disorders with co-morbid epilepsy.
The described compounds of formula I reduce L-687,414-induced hyperlocomotion. This was assessed by using a computerized Digiscan 16 Animal Activity Monitoring System (Omnitech Electronics, Columbus, Ohio) to quantify locomotor activity. Animals were kept under a 12 h light/dark cycle and experiments were performed during the light period. Each activity monitoring chamber consisted of a Plexiglas box (41×41×28 cm; W×L×H) with sawdust bedding on the floor surrounded by invisible horizontal and vertical infrared sensor beams. The test boxes were divided by a Plexiglas cross providing each mouse with 20×20 cm of moving space. Cages were connected to a Digiscan Analyzer linked to a computer that constantly collected the beam status information. Records of photocell beam interruptions for individual animals were taken every 5 min over the duration of the experimental session and the sum of the first 6 periods was used as the final parameter. At least 8 mice were used in each treatment group. Compounds were administered i.p. 15 min before a s.c. injection of 50 mg/kg of L-687,414. Mice were then transferred from their home cage to the recording chambers for a 15-min habituation phase allowing free exploration of the new environment. Horizontal activity was then recorded for a 30-min time period. The % inhibition of L-687,414-induced hyperlocomotion was calculated according to the equation: ((Veh+L-687,414 horizontal activity−drug+L-687,414 horizontal activity)/Veh+L-687,414 horizontal activity)×100
ID50 values, defined as doses of each compound producing 50% inhibition of L-687,414-induced hyperlocomotion, were calculated by linear regression analysis of a dose-response data using an Excel-based computer-fitting program. As data was not presupposed to be normally distributed, groups treated with test compounds were statistically compared with the control (vehicle-treated) group using one-tailed Mann Whitney U tests. In statistics, the Mann-Whitney U test (also called the Mann-Whitney-Wilcoxon (MWW) or Wilcoxon rank-sum test) is a non-parametric statistical hypothesis test for assessing whether one of two samples of independent observations tends to have larger values than the other. It is one of the most well-known non-parametric significance tests. […] P values given in table 1 are one-tailed since only decreases in locomotion were expected and tested for (Mann, H. B., Whitney, D. R. (1947), “On a Test of Whether one of Two Random Variables is Stochastically Larger than the Other”, Annals of Mathematical Statistics, 18 (1), 50-60).

Regarding `CNC(=O)c1cncc(N2C(=O)C(C)(C)c3ccc(-c4cnc(C)nc4)cc32)n1` [Example 2, 6-(3,3-Dimethyl-6-(2-methylpyrimidin-5-yl)-2-oxoindolin-1-yl)-N-methylpyrazine-2-carboxamide], the IC50 in experiment [1] is 0.028 µM. Moreover, the “Inhibition, ip [%] of L-687,414-induced hyperlocomotion” value (“Inhibition, ip [%]” below) in experiment [2] is given as 97.5%.
On the same counts, the results for `COCCNC(=O)c1cncc(N2C(=O)C(C)(C)c3ccc(-c4cnc(C)nc4)cc32)n1` [Example 7, 6-(3,3-Dimethyl-6-(2-methylpyrimidin-5-yl)-2-oxoindolin-1-yl)-N-(2-methoxyethyl)pyrazine-2-carboxamide] are 0.0884 µM and 88.1%.
As to `Cc1ncc(-c2ccc3c(c2)N(c2cnc(C(=O)N(C)C)cn2)C(=O)C3(C)C)cn1` [Example 11, 5-[3,3-Dimethyl-6-(2-methylpyrimidin-5-yl)-2-oxoindol-1-yl]-dimethylpyrazine-2-carboxamide], the IC50 in experiment [1] worked out at 0.123 µM. Moreover, the “Inhibition, ip [%]” value in experiment [2] was 98.4%.
Turning to `CNC(=O)c1ccnc(N2C(=O)C(C)(C)c3ccc(-c4cnc(C)nc4)cc32)n1` [Example 16, 2-(3,3-Dimethyl-6-(2-methylpyrimidin-5-yl)-2-oxoindolin-1-yl)-N-methylpyrimidine-4-carboxamide], inhibition in experiment [1] was half-maximal at 0.241 µM (IC50). Moreover, in experiment [2], the “Inhibition, ip [%]” value came out at 94.6%.
The corresponding values for `CNC(=O)c1cccc(N2C(=O)C(C)(C)c3ccc(-c4cnc(C)nc4)cc32)n1` [Example 22, 6-(3,3-Dimethyl-6-(2-methylpyrimidin-5-yl)-2-oxoindolin-1-yl)-N-methylpicolinamide] are 0.0085 µM and 95.6%.
As to `Cc1ncc(-c2ccc3c(c2)N(c2cccc(C(=O)NC4CC4)n2)C(=O)C3(C)C)cn1` [Example 24, N-Cyclopropyl-6-(3,3-dimethyl-6-(2-methylpyrimidin-5-yl)-2-oxoindolin-1-yl)picolinamide], half-maximal inhibition in experiment [1] (IC50) required 0.0458 µM. For the same compound, the “Inhibition, ip [%]” value in experiment [2] is recorded as 99.1%.
The corresponding values for `Cc1ncc(-c2ccc3c(c2)N(c2ccc(C(=O)N(C)C)cn2)C(=O)C3(C)C)cn1` [Example 29, 6-(3,3-Dimethyl-6-(2-methylpyrimidin-5-yl)-2-oxoindolin-1-yl)-N,N-dimethylnicotinamide] are 0.585 µM and 93%.
Consider `Cc1ncc(-c2ccc3c(c2)N(c2ccc4c(c2)C(=O)N(C)C4)C(=O)C3(C)C)cn1` [Example 37, 3,3-Dimethyl-1-(2-methyl-3-oxoisoindolin-5-yl)-6-(2-methylpyrimidin-5-yl)indolin-2-one], for which the IC50 in experiment [1] worked out at 0.668 µM.
Same read-out and setting: next, `Cc1ncc(-c2ccc3c(c2)N(c2ccc4c(n2)C(=O)NC4(C)C)C(=O)C3(C)C)cn1` [Example 38, 2-(3,3-Dimethyl-6-(2-methylpyrimidin-5-yl)-2-oxoindolin-1-yl)-5,5-dimethyl-5H-pyrrolo[3,4-b]pyridin-7(6H)-one]: 0.239 µM; `Cc1ncc(-c2ccc3c(c2)N(c2cncc(C(=O)NC4CC4)n2)C(=O)C3(C)C)cn1` [Example 39, N-Cyclopropyl-6-(3,3-dimethyl-6-(2-methylpyrimidin-5-yl)-2-oxoindolin-1-yl)pyrazine-2-carboxamide]: 0.0764 µM; `Cc1ncc(-c2ccc3c(c2)N(c2cncc(C(=O)NC4CC(F)(F)C4)n2)C(=O)C3(C)C)cn1` [Example 40, N-(3,3-Difluorocyclobutyl)-6-(3,3-dimethyl-6-(2-methylpyrimidin-5-yl)-2-oxoindolin-1-yl)pyrazine-2-carboxamide]: 0.323 µM.
On the same count and under the same terms, for `Cc1ncc(-c2ccc3c(c2)N(c2cncc(C(=O)NC4CCC4)n2)C(=O)C3(C)C)cn1` [Example 42, N-Cyclobutyl-6-(3,3-dimethyl-6-(2-methylpyrimidin-5-yl)-2-oxoindolin-1-yl)pyrazine-2-carboxamide] the value was 0.129 µM.
In experiment [1], `Cc1ncc(-c2ccc3c(c2)N(c2cncc(C(=O)NC4COC4)n2)C(=O)C3(C)C)cn1` [Example 43, 6-(3,3-Dimethyl-6-(2-methylpyrimidin-5-yl)-2-oxoindolin-1-yl)-N-(oxetan-3-yl)pyrazine-2-carboxamide] returned an IC50 of 0.319 µM.
On the same count and under the same terms, next, `Cc1ncc(-c2ccc3c(c2)N(c2cncc(C(=O)NC(C)(C)C)n2)C(=O)C3(C)C)cn1` [Example 44, N-(tert-Butyl)-6-(3,3-dimethyl-6-(2-methylpyrimidin-5-yl)-2-oxoindolin-1-yl)pyrazine-2-carboxamide]: 0.243 µM; `CNC(=O)c1nc(N2C(=O)C(C)(C)c3ccc(-c4cnc(C)nc4)cc32)cn1C` [Example 45, 4-(3,3-Dimethyl-6-(2-methylpyrimidin-5-yl)-2-oxoindolin-1-yl)-N,1-dimethyl-1H-imidazole-2-carboxamide]: 0.021 µM.
In the case of `Cc1ncc(-c2ccc3c(c2)N(c2cn(C)c(C(=O)N(C)C)n2)C(=O)C3(C)C)cn1` [Example 46, 4-(3,3-Dimethyl-6-(2-methylpyrimidin-5-yl)-2-oxoindolin-1-yl)-N,N,1-trimethyl-1H-imidazole-2-carboxamide], the 50% inhibitory concentration (IC50) in experiment [1] is 0.0469 µM.

Values taken from patent publication US11066393B2, “Indolin-2-one derivatives” (Hoffmann-La Roche Inc., priority 2015, dated 2021).
